Source: publication PMC4893612 (Scientific Reports, 2016)

Key:
Type in all cases: cell-based
OPM-2-BZ^R = assay: MTT antiproliferative assay, OPM-2-BZR; details: Homo sapiens, OPM-2-BZ^R (bortezomib resistant), 72 hours
Procedure: (§1) Cell viability was monitored by the MTT (3-(4,5-dimethylthiazol-2-yl)-2,5-diphenyltetrazolium bromide) assay. For the MTT assay, cells were suspended at 5 × 10^5 cells/ml, and 100 μl aliquots were dispended into 96-well microtiter plates and exposed to drugs as described using DMSO control. At the end of incubations, 10 μl of a stock solution of 5 mg/ml MTT (3-(4,5-dimethylthiazol-2-yl)-2,5-diphenyltetrazolium bromide), was added into each well, and the plates were incubated 4 hours at 37 °C. Formazan crystals were dissolved with 100 μl of 10% SDS/10 mM HCl solution overnight at 37 °C. Since MTT assays are affected by mitochondrial activity, and since OXPHOS is affected by VLX1570 (unpublished observation), we used the acid phosphatase method[49] to determine cell viability in some experiments. After washing twice with PBS, cells were lysed in 100 μl of 0.1 M sodium acetate, 0,1% Triton X-100, p-nitrophenylphosphate (Pierce Biotechnology Inc, Rockford, IL) and incubated for 90 min at 37 °C. At the end of the incubation, 10 μl NaOH was added to each well and A405 was determined.

KMS-11 = assay: MTT antiproliferative assay, KMS-11; details: Homo sapiens, 72 hours
Procedure: as §1

OPM-2 = assay: MTT antiproliferative assay, OPM-2; details: Homo sapiens, 72 hours
Procedure: as §1

RPMI8226 = assay: MTT antiproliferative assay, RPMI8226; details: Homo sapiens, RPMI-8226, 72 hours
Procedure: as §1

USP14 = USP14 (Homo sapiens, UniProt P54578); assay: Cellular thermal shift assay (CETSA) in OPM-2 cells; design: endogenous in cells; host or cells: OPM-2 multiple myeloma cells; details: 1 hour
Procedure: For CETSA, the same amount of cells as one sample was treated with required condition and collected as described. Each sample was suspended in PBS supplemented with protease inhibitors after they were washed in PBS. And then these samples were heated at 51, 53, or 55 °C for 3 min. Immediately after heating, tubes were removed and incubated at room temperature for 3 min, and then snap-frozen in liquid nitrogen. Samples were freeze-thawed twice and centrifuged at 20,000 g for 20 min at +4 °C and supernatants were analysed by Western-blotting.

USP14, sequence (P54578 whole entry): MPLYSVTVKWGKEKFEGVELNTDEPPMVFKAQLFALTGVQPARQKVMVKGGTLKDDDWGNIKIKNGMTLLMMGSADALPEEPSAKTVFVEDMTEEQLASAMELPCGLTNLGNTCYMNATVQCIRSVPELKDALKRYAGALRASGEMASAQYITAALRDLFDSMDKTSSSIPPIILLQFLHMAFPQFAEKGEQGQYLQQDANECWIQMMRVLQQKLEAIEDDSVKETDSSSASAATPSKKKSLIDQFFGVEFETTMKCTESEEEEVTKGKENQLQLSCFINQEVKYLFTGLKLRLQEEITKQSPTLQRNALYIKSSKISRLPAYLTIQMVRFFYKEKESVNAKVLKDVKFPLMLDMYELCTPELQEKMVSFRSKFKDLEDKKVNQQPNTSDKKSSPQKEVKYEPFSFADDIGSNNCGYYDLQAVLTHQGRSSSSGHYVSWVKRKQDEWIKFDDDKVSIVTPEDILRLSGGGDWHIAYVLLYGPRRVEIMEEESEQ

thermostabilization of USP14 (USP14; 5 μM) | Structure (SMILES) | IC50 (OPM-2-BZ^R) [nM] | IC50 (KMS-11) [nM] | IC50 (OPM-2) [nM] | IC50 (RPMI8226) [nM] | thermostabilization of USP14 (USP14; 1 μM)
 | CC(C)C[C@H](NC(=O)[C@H](Cc1ccccc1)NC(=O)c1cnccn1)B(O)O [bortezomib] | 204 ± 10 | 67 ± 3 | 32 ± 1 | 84 ± 5 | 
induced thermostabilization | CCC[C@H](NC(=O)/C(C#N)=C/c1cccc(Br)n1)c1ccccc1 [WP1130, reference compound] |  |  |  |  | 
 | C=CC(=O)N1C/C(=C\c2ccc([N+](=O)[O-])cc2)C(=O)/C(=C/c2ccc([N+](=O)[O-])cc2)C1 [b-AP15] | 268 ± 12 | 83 ± 3 | 160 ± 3 | 150 ± 14 | induced thermostabilization
